# Reference: PMC3731320, “Identification of Benzimidazole Diamides as Selective Inhibitors of the Nucleotide-Binding Oligomerization Domain 2 (NOD2) Signaling Pathway” (PLoS ONE, 2013)
# Entries after “also recorded” stand apart in the source; their conditions may differ. Read-outs that look alike come from different tables or passages of the source.
# Key:
# [1] = system: TLR2; assay: Pam2CSK4-stimulated IL-8 release in 293/hTLR2 cells; format: cell-based, human; settings: read-out: IC50 293/hTLR2 Pam2CSK4, IL-8 end-point, 3–10 ng/mL Pam2CSK4
# Experimental: (§1) After 24 hours the amount of IL-8 secreted into the medium was determined by homogeneous time resolved fluorescence (HTRF) assay by the direct addition of a 1:1 mix of europium cryptate and XL665-conjugated anti-IL-8 antibodies according to the manufacturer's instructions (Cisbio).
# [2] = system: HCT116 cells; assay: Uptake of MDP-rhodamine by HCT116 cells (fluorescence microscopy); format: cell-based, human; settings: GSK669 up to 20 μM, chlorpromazine 20 μM, 1–4 hour
# Experimental: HCT116 cells seeded onto glass cover-slips at low density were pre-treated with GSK669 or the endocytosis inhibitor chlorpromazine for 30 minutes before addition of 2.5 μg/mL MDP-rhodamine. Live cells were viewed periodically over 6-hours incubation at 37 °C using a Nikon eclipse TE2000-E fluorescent inverted microscope fitted with a CCTV camera and rhodamine filter.
# [3] = system: NOD2; assay: MDP-stimulated IL-8 release in HCT116 cells (endogenous NOD2); format: cell-based, human
# Experimental: (§2) Compound activity on endogenous NOD1 and NOD2 receptors was determined by inhibition of either Tri-DAP or MDP-stimulated IL-8 release, respectively, using HCT116 human colon carcinoma cells. […] The cells were maintained in DMEM high glucose medium supplemented with 25 mM HEPES and 10% FBS. For assay, cells were seeded into 96 well plates (90,000 cells/well) in DMEM containing 1% FBS and pre-incubated with compounds for 1 hour before addition of either 1 μg/mL MDP or 25 μg/mL Tri-DAP. The level of IL-8 released into medium after 24-hour incubation was determined by HTRF assay as described above and fluorescence measured on an Envision model 2102 multilabel plate reader (Perkin Elmer).
# [4] = system: TNFR1; assay: TNFα-stimulated (TNFR1-induced) IL-8 release in 293/hNOD2 cells; format: cell-based, human; settings: read-out: IC50 293/hNOD2 TNFα, IL-8 end-point, 20 ng/mL rhTNFα
# Experimental: as §1
# [5] = system: NOD1; assay: Western blot of MAPK phosphorylation and IκBα in Tri-DAP-stimulated 293/hNOD1 cells; format: cell-based, human; settings: GSK669 up to 30 μM
# Experimental: (§3) Confluent cultures of 293/-hNOD1 and -hNOD2 cells in 24-well plates were serum-starved over-night. The next day, cells were pre-incubated for 1 hour with compound and then stimulated for 1 hour with either 50 μg/mL Tri-DAP or 25 μg/mL MDP, respectively. Whole cell lysates were prepared in 1X cell lysis buffer (Cell Signaling Technology) containing additional inhibitors of aspartic, cysteine and serine proteases and aminopeptidases (protease inhibitor cocktail set III, EMD Biosciences) and inhibitors of multiple phosphatases (phosphatase inhibitor cocktail sets II and III, Sigma-Aldrich). The levels of phosphorylated and total p38, JNK, ERK1/2 and total IκBα were determined by immunoblotting of ∼20 μg protein per sample using the following primary antibodies: phospho-p38 MAPK (12F8, #4631), p38 MAPK (#9212), phospho-JNK (#9251), JNK (#9252) and IκBα (#9242) all purchased from Cell Signaling Technology, and phospho-ERK1/2 (sc-7383) and ERK1/2 (sc-94) antibodies from Santa Cruz Biotechnology.
# [6] = system: 300 human kinases; assay: Kinase panel profiling (Reaction Biology Corp); format: biochemical; settings: compound at 1 μM; 10 μM ATP; any kinase of the panel
# Experimental: The original hit compound identified as a selective inhibitor of the NOD2 pathway was profiled for inhibitory activity against 300 human kinases (Reaction Biology Corp). The compound was tested in duplicate at a single concentration (1 μM) and was pre-incubated with enzyme for 20 minutes prior to addition of 10 μM ATP.
# [7] = system: NOD2; assay: MDP-stimulated IL-8 release in 293/hNOD2 cells (HTRF); format: cell-based, human; settings: for IC50: Homo sapiens
# Experimental: as §1
# [8] = system: NOD2; assay: MDP-stimulated IL-8 secretion in NOD2 BacMam transduced HEK293T cells; format: cell-based, human
# Experimental: (§4) Over-expression of NOD1 and NOD2 was achieved by transduction of HEK293T cells with either NOD1 or NOD2 BacMam recombinant baculoviruses. […] The effect of compounds on activator-independent NOD1/2 signaling was determined by 30 minute pre-treatment of cells (in 96-well plates seeded the previous day in DMEM high glucose with 10% FBS at 60,000 cells/well) followed by infection with NOD1 or NOD2 BacMam virus (MOI = 50). IL-8 was measured in conditioned medium after 24 hour incubation at 37 °C. To determine the effect of compounds on NOD1/2 activator-dependent IL-8 secretion in BacMam transduced HEK293T, the cells were infected with virus for 6 hours (MOI = 50), and following the removal of virus the cells were cultured over-night. The next day medium was again replaced and cells pre-treated with compound for 30 minutes followed by stimulation with either MDP (30 ng/mL) or iE-DAP (300 ng/mL). IL-8 was measured in conditioned medium by HTRF after 24-hour incubation at 37 °C.
# [9] = system: NOD2; assay: ssRNA-induced IFNβ gene expression in 293/hNOD2 cells (real-time RT-PCR); format: cell-based, human; settings: GSK669 0.16–16 μM, RIP2 inhibitor 0.1 μM, mRNA after 6 hours
# Experimental: Cells seeded in 96-well plates at sub-confluent density (60,000/well) in DMEM + 1% FBS were transfected for 6 hours with ssRNA40 (1.25–6.67 μg/mL) using lipofectamine 2000 (Invitrogen) and RNA/liposome complexes prepared in Opti-MEM1 medium (Invitrogen). Induction of IFNβ gene expression was measured by real-time reverse transcription PCR (Taqman). RNA was isolated from cell extracts in Trizol (Invitrogen) using the RNeasy kit (Qiagen), and mRNA quantified following reverse transcription and PCR amplification using Taqman reverse transcription and Taqman PCR core reagent kits, pre-formulated primer/probe mixes and ABI 7900 sequence detection system (Applied Biosystems). Expression of IFNβ (ABI primer/probe mix Hs01077958_s1) was normalized to 18S ribosomal RNA.
# [10] = system: NOD1; assay: Tri-DAP-stimulated IL-8 release in HCT116 cells (endogenous NOD1); format: cell-based, human
# Experimental: as §2
# [11] = system: NOD2; assay: IL-8 secretion induced by NOD2 over-expression (BacMam) in HEK293T cells, activator-independent; format: cell-based, human
# Experimental: as §4
# [12] = system: NOD2; assay: Western blot of MAPK phosphorylation and IκBα in MDP-stimulated 293/hNOD2 cells; format: cell-based, human; settings: GSK669 at 1 and 10 μM
# Experimental: as §3
compound,measurement,setting,value
"O=C(Cn1c(CCNC(=O)c2ccccc2)nc2ccccc21)Nc1ccc2c(c1)CCC2 [Compound 1, N-(2-(1-(2-((2,3-dihydro-1H-inden-5-yl)amino)-2-oxoethyl)-1H-benzo[d]imidazol-2-yl)ethyl)benzamide]",IC50,[1]; listed as GSK669,> 30 µM
same,IC50,[1]; listed as GSK669 (1),> 80 µM
same,effect on uptake of Rhodamine-MDP into cells,[2],unaffected; also recorded: does not block cellular uptake of MDP
same,IC50,"[3]; Homo sapiens, HCT-116, IL-8 end-point, 1 μg/mL MDP",0.5 ± 0.2 µM
same,effect on IL-8 secretion induced by MDP in HCT116 cells,"[3]; MDP 1 μg/mL, 1 hour pre-treatment",dose-dependently inhibited
same,IC50,[4]; listed as GSK669,> 30 µM
same,IC50,[4]; listed as GSK669 (1),> 100 µM
same,"effect on Tri-DAP-induced p-p38, p-JNK and total IκBα",[5],inactive
same,"inhibition of kinase activity, panel of 300 human kinases",[6],≤ 50%
same,IC50,[7]; read-out: IC50 293/hNOD2 MDP,3.2 µM
same,IC50,"[7]; MDP-stimulated IL-8 production assay in 293/hNOD2 cells, Figures 4 and 5, read-out: NOD2 IC50",3.3 ± 1.6 µM
same,fold less active in the selectivity assays than on the NOD2 pathway,[7]; all selectivity assays vs NOD2 IC50,at least 10 fold
same,"effect on MDP response in NOD2 transduced cells, single concentration","[8]; HEK293T, 6 hours virus then MDP 30 ng/mL, GSK669 5 μM, IKK inhibitor 0.5 μM",selectively blocked the MDP response
same,IC50,"[8]; Homo sapiens, HEK-293T, 6 hours transduction, then MDP 30 ng/mL 24 hours, IL-8, read-out: IC50, MDP response in NOD2 transduced HEK293T cells",0.5 µM
same,effect on ssRNA-induced IFNβ expression,[9],unaffected; also recorded: did not block
same,IC50,"[10]; Homo sapiens, HCT-116, IL-8 end-point, 25 μg/mL Tri-DAP",> 50 µM
same,effect on IL-8 secretion induced by Tri-DAP in HCT116 cells,"[10]; Tri-DAP 25 μg/mL, 1 hour pre-treatment",had no effect
same,"effect on IL-8 secretion induced by NOD2 virus alone, single concentration","[11]; MOI 50, 24 hours, GSK669 5 μM, IKK inhibitor 0.5 μM",failed to block IL-8 secretion
same,effect on IL-8 secretion induced by NOD2 over-expression,"[11]; NOD2 virus 24 hours, GSK669 up to 50 μM",failed to inhibit this response
same,"effect on MDP-induced p-p38, p-JNK and total IκBα",[12],prevented MDP-induced increases in p-p38 and p-JNK and MDP-induced reduction in total IκBα
